In brackets after ≈: the same amount, converted by molar mass.
Legend:
persistent E. coli = assay: Bactericidal activity against persistent E. coli selected by gentamicin; type: cell-based, Escherichia coli; conditions: Escherichia coli, read-out: Log Kill
Procedure: (§1) Escherichia coli K12; Gram negative; Reference strain.
An antibiotic (gentamicin) was added to 5-6 day stationary-phase cultures to the final concentration of 50 to 100 μg/ml for 24 hours. After 24 hours of antibiotic treatment, the cells are washed 3 times with phosphate buffered saline (PBS), and then resuspended in PBS. The surviving bacterial cells are used as persisters. Viability is estimated by CFU counts. The persisters were then used in measurements of bactericidal activity for test compounds.
Different concentrations of each test compound were incubated with the (persister) cell suspension in 96 well plates for various periods of time (24 and 48 hours). Bactericidal activity was then determined by taking CFU counts of the resulting cultures, as described above.

stationary phase E. coli = assay: Bactericidal activity against stationary phase E. coli (CFU counts); type: cell-based, Escherichia coli; conditions: Escherichia coli, read-out: Log kill
Procedure: as §1
(§2) Bacteria were grown in 10 ml of nutrient broth (No. 2 (Oxoid)) overnight at 37° C., with continuous shaking at 120 rpm. The overnight cultures were diluted (1000×) in 100 ml of growth medium and then incubated without shaking for 10 days. Viability of the bacteria was estimated by colony forming unit (CFU) counts at 2 hour intervals at the first 24 hours and at 12-24 hours afterwards. From serial 10-fold dilutions of the experimental cultures, 100 μl samples were added to triplicate plates of nutrient agar plates (Oxoid) and blood agar plates (Oxoid). Colony forming units (CFU) were counted after incubation of the plates at 37° C. for 24 hours.
(§3) Cultures incubated for more than 24 hours are in the stationary phase. For drug screening, 5-6 day old stationary phase cultures were used.
(§4) Different concentrations of each test compound were incubated with stationary phase cultures (5-6 day cultures) in 96 well plates for 24 or 48 hours. Bactericidal activity was then determined by taking CFU counts of the resulting cultures, as described above.

[1] = tested on: stationary phase S. aureus; assay: Bactericidal activity against stationary phase S. aureus (CFU counts); type: cell-based, Staphylococcus aureus; conditions: Staphylococcus aureus, read-out: Log Kill
Procedure: Staphylococcus aureus (Oxford strain); Gram positive; Reference strain.
as §2, §3, §4

[2] = tested on: stationary phase P. aeruginosa; assay: Bactericidal activity against stationary phase P. aeruginosa; type: cell-based, Pseudomonas aeruginosa
Procedure: as §2, with “Pseudomonas aeruginosa NCTC 6751; Gram negative; Reference strain. Bacteria” for “Bacteria”, “hours. Cultures incubated for more than 24 hours are in the stationary phase. For drug screening, 5-6 day old stationary phase cultures were used. Different concentrations of each test compound were incubated with stationary phase cultures (5-6 day cultures) in 96 well plates for 24 or 48 hours. Bactericidal activity was then determined by taking CFU counts of the resulting cultures, as described above.” for “hours.”

[3] = tested on: NDM-1 Klebsiella pneumoniae; assay: Chequerboard analysis with colistin against NDM-1 Klebsiella pneumoniae; type: cell-based
log phase E. coli = assay: MIC against log phase E. coli; type: cell-based, Escherichia coli; conditions: Escherichia coli, read-out: MIC
Procedure: as §1
The above-described overnight cultures were diluted (1000×) with iso-sensitest broth. The cultures were then incubated at 37° C. with shaking for 1-2 hours to reach log CFU 6, which served as log phase cultures.
The bactericidal activity of the drugs against log phase cultures were determined by minimal inhibitory concentration (MIC) of the drugs, which is defined as the lowest concentration which inhibits visible growth. Different concentrations of each test compound were incubated with the log-phase cultures in 96 well plates for 24 hours. Bactericidal activity was then examined by taking a spectrophotometer reading (using a plate reader) at 405 nm.

[4] = tested on: clinically latent microorganisms; assay: Screening for ability to kill clinically latent microorganisms (method of WO2000028074); type: cell-based
Excerpt: International Patent Application, Publication Number WO2000028074 describes a method of screening compounds to determine their ability to kill clinically latent microorganisms. […] This observation has necessitated the development of novel antimicrobials which may be used to kill clinically latent microorganisms.
By way of example, WO2000028074 describes a suitable method of screening compounds to determine their ability to kill clinically latent microorganisms. A typical method may include the following steps: • (1) growing a bacterial culture to stationary phase; • (2) treating the stationary phase culture with one or more antimicrobial agents at a concentration and or time sufficient to kill growing bacteria, thereby selecting a phenotypically resistant sub-population; • (3) incubating a sample of the phenotypically resistant subpopulation with one or more test compounds or agents; and • (4) assessing any antimicrobial effects against the phenotypically resistant subpopulation.

## OC(c1cc(C(F)(F)F)nc2c(C(F)(F)F)cccc12)C1CCCCN1 (stereo not drawn) [Mefloquine]
Persistent E. coli; 6.25 μg/ml
  log reduction at 6.25 µg/mL: 0.02
Persistent E. coli; 12.5 μg/ml
  log reduction at 12.5 µg/mL: 0.03
Persistent E. coli; 25 μg/ml
  log reduction at 25 µg/mL: 6.21
Stationary phase E. coli; 6.25 μg/ml
  log reduction at 6.25 µg/mL: 2.48
Stationary phase E. coli; 12.50 μg/ml
  log reduction at 12.5 µg/mL: 6.14
Stationary phase E. coli; 25.00 μg/ml
  log reduction at 25 µg/mL: 6.14
[1]; 6.25 μg/ml
  log reduction at 6.25 µg/mL: -0.01
[1]; 12.5 μg/ml
  log reduction at 12.5 µg/mL: 6.03
[1]; 25 μg/ml
  log reduction at 25 µg/mL: 6.03
[2]; 40 μg/ml
  log reduction of the bacterium: about 1.5 log
[2]; 80 μg/ml
  organism removed: more than 10^7
[2]; FIG. 1
  activity against stationary phase P. aeruginosa: active
[3]; mefloquine 0.25 mg/L alone
  spectrophotometer reading: 1.10
[3]; mefloquine 0.5 mg/L alone
  spectrophotometer reading: 1.08
[3]; mefloquine 1 mg/L alone
  spectrophotometer reading: 1.10
[3]; mefloquine 2 mg/L alone
  spectrophotometer reading: 1.09
[3]; mefloquine 4 mg/L alone
  spectrophotometer reading: 1.09
[3]; mefloquine 8 mg/L alone
  spectrophotometer reading: 1.15
[3]; mefloquine 16 mg/L alone
  spectrophotometer reading: 1.10
[3]; mefloquine 32 mg/L alone
  spectrophotometer reading: 0.82
[3]; mefloquine 64 mg/L alone
  spectrophotometer reading: 0.60
[3]; mefloquine 128 mg/L alone
  spectrophotometer reading: 0.33
[3]; mefloquine 256 mg/L alone
  spectrophotometer reading: 0.34
Log phase E. coli
  MIC: 10 µg/mL (≈ 26.4 µM)

## CC[C@H]1OC(=O)[C@H](C)[C@@H](O[C@H]2C[C@@](C)(OC)[C@@H](O)[C@H](C)O2)[C@H](C)[C@@H](O[C@@H]2O[C@H](C)C[C@H](N(C)C)[C@H]2O)[C@](C)(O)C[C@@H](C)CN(C)[C@H](C)[C@@H](O)[C@]1(C)O [azithromycin]
[4]
  activity against clinically latent microorganisms: little or no activity

## CC(=O)NC[C@H]1CN(c2ccc(N3CCOCC3)c(F)c2)C(=O)O1 [linezolid]
[4]
  activity against clinically latent microorganisms: little or no activity

## C/C(=C\C(=O)OCCCCCCCCC(=O)O)C[C@@H]1OC[C@H](C[C@@H]2O[C@H]2[C@@H](C)[C@H](C)O)[C@@H](O)[C@H]1O [mupirocin]
[4]
  activity against clinically latent microorganisms: little or no activity
